In US11464771B2, “Bromodomain and extra-terminal protein inhibitor combination therapy” (CELGENE QUANTICEL RESEARCH, INC., priority 2016, dated 2022):
Entries after “also recorded” stand apart in the source; their conditions may differ.

Assays:
[1] = Pharmacokinetics and oral bioavailability in dogs; type: in vivo, Beagle dogs
Procedure: (§1) Pharmacokinetics and oral bioavailability of Compound A were evaluated in Sprague-Dawley rats and Beagle dogs.

[2] = system: CYP2B6; assay: CYP2B6 induction in hepatocytes; type: in vitro ADME; conditions: up to 10 μM
From the text: (§2) Compound A has minimal potential to cause drug-drug interactions with co-administered drugs that are CYP substrates.

[3] = Pharmacokinetics and oral bioavailability in rats; type: in vivo, Sprague-Dawley rats
Procedure: as §1

[4] = system: bacterial reverse mutation; assay: Non-GLP bacterial reverse mutation assay (Ames)
Procedure: In a non-GLP bacterial reverse mutation assay (Ames), Compound A was determined to be non-mutagenic.

[5] = system: COH70 TNBC PDX subcutaneous tumor; assay: Tumor growth inhibition in TNBC PDX model COH70; type: in vivo, NSG mice; conditions: Day 38
Procedure: FIG. 1 is a graph showing dose-dependent tumor growth inhibition as measured by tumor volume in a TNBC PDX model, COH70, following dosing with Compound A (4-[2-(cyclopropylmethoxy)-5-methylsulfonylphenyl]-2-methylisoquinolin-1-one). Compound A dosing by mouth (PO) once daily for 3 consecutive days, followed by 4 days off (3×/week); —— Vehicle; - - - - Compound A 12.5 mg/kg PO 3×/week; —— —— Compound A 16 mg/kg PO 3×/week; - —— - —— Compound A 20 mg/kg PO 3×/week; SEM is the standard error of the mean.

[6] = system: MYC gene expression in Raji Burkitt's lymphoma cells; assay: qRT PCR of MYC gene expression; type: cell-based; conditions: Homo sapiens, mean, read-out: IC50, inhibition of MYC gene expression
Procedure: Regulation of MYC gene expression by BRD4 has been shown in models of Burkitt's lymphoma with inhibition of BRD4, leading to growth arrest (Mertz, 2011). Similarly, in a model of lung adenocarcinoma. BRD4 inhibition was also found to be antiproliferative; however, this effect was ascribed to FOSL1 down-regulation (Lockwood, 2012). […] (Tang, 2014). The effect of Compound A treatment on MYC FOSL1, and GLI1 gene expression was evaluated by quantitative reverse transcription polymerase chain reaction (qRT PCR).

[7] = system: MYC expression in COH70 TNBC PDX tumor; assay: MYC down-regulation in COH70 tumors in mice; type: in vivo
Procedure: (§3) Corresponding tumor concentrations of Compound A were determined in the COH70 model at 2, 4, and 8 hrs post-dose. Maximally-measured tumor levels of Compound A were at 2 hr post-dose and were […] and 6.7±1.7 μM at 2 mg/kg and 10 mg/kg, respectively. Modulation of MYC expression levels correlated with intra-tumor concentrations of Compound A.

[8] = system: BR0869f ER-PR-Her2+ PDX-derived breast cancer model; assay: 3-D Matrigel colony formation, BR0869f; type: cell-based; conditions: Homo sapiens, 7 or 14 days
Procedure: (§4) The effect of Compound A on colony formation in four PDX-derived breast cancer models was assessed using a 3-D Matrigel-based in vitro culture system. Compound A was tested at concentrations ranging from either 0.008 μM to 5 μM or 0.0016 μM to 1 μM in 5-fold increments. Colony formation was assessed after 7 days or 14 days of treatment by quantifying colony numbers by microscopy. […] The overall mean for the three TNBC models was 0.11±0.04 μM.

[9] = system: TNBR3 TNBC PDX-derived model; assay: 3-D Matrigel colony formation, TNBR3; type: cell-based; conditions: Homo sapiens, 7 or 14 days
Procedure: as §4

[10] = Functional observational battery (FOB) in 4-week rat study; type: in vivo, rats; conditions: GLP 4-week repeat-dose rat study
Procedure: Safety pharmacology evaluations, i.e., functional observational battery (FOB), were also performed to determine the potential central nervous system effects of Compound A as part of the GLP 4-week repeat-dose toxicity rat study.

[11] = target: CYP1A2 (Homo sapiens, UniProt P05177); assay: CYP1A2 inhibition in vitro; type: in vitro ADME
From the text: as §2

[12] = system: CYP1A2; assay: CYP1A2 induction in hepatocytes; type: in vitro ADME; conditions: up to 10 μM
From the text: as §2

[13] = Human PK prediction by allometric scaling; conditions: assumption used for the human prediction
From the text: As described herein, a battery of in vitro and in vivo studies have been conducted to characterize the absorption. PK, distribution, metabolism and elimination of Compound A. Robust and reproducible bioanalytical methods for the quantitation of Compound A levels were developed and used in PK and toxicokinetic studies. Human PK parameters and exposures were predicted using allometric scaling.

[14] = Tumor concentrations in COH70 model; type: in vivo, mice; conditions: 2 hr post-dose
Procedure: as §3

[15] = Metabolism in human hepatocytes; type: in vitro ADME; conditions: single metabolite
From the text: No unique human metabolites were identified.

[16] = Body weight change in GBM15 study; type: in vivo, mice
Procedure: In a GBM PDX subcutaneous model. […] Mice bearing tumors were dosed orally QD on several schedules with the cumulative weekly Compound A dose on each schedule equal to 75 mg/kg.

[17] = system: COH69, COH71, and TNBR3 TNBC models; assay: 3-D Matrigel colony formation, mean of three TNBC models; type: cell-based; conditions: Homo sapiens, read-out: overall mean IC50 of colony formation for the three TNBC models
Procedure: as §4

CYP1A2 (Homo sapiens, UniProt P05177), sequence (P05177 whole entry): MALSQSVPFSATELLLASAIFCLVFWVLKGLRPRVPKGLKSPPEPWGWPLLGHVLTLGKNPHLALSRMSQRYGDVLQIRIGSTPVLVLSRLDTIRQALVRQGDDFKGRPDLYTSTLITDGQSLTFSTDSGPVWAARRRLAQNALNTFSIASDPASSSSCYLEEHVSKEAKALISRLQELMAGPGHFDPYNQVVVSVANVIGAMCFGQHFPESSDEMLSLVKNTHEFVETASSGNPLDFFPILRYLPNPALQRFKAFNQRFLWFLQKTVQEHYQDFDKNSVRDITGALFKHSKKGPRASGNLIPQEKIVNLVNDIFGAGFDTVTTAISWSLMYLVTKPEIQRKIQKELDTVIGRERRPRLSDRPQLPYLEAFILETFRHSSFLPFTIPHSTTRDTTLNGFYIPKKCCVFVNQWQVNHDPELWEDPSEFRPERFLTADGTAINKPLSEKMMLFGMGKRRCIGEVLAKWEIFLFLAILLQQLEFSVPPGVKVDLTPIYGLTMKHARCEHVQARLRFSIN

## Cn1cc(-c2cc(S(C)(=O)=O)ccc2OCC2CC2)c2ccccc2c1=O [Compound A, 4-[2-(cyclopropylmethoxy)-5-methylsulfonylphenyl]-2-methylisoquinolin-1-one]
[1]
  mean oral bioavailability: 76%
[2]
  induction of CYP2B6: not an inducer; also recorded: did not induce
[3]
  clearance in males relative to females: approximately 2 fold
[3]; Sprague-Dawley, rat, in vivo, po
  bioavailability: 40%
[4]
  mutagenicity (Ames): non-mutagenic
[5]; 12.5 mg/kg PO QD 3 days on/4 days off
  mean percent TGI: 64%
[5]; 16 mg/kg PO QD 3 days on/4 days off
  mean percent TGI: 68%
[5]; 20 mg/kg PO QD 3 days on/4 days off
  mean percent TGI: 72%
[6]
  IC50: 0.06 µM
[7]; 2 mg/kg, at 2 hr, rebound to control by 8 hr
  maximal suppression of MYC expression: 51.3%
[7]; 10 mg/kg, at 4 hr, no rebound by 24 hr
  maximal suppression of MYC expression: 63.4%
[8]
  IC50: 0.12 ± 0.01 µM
[9]
  IC50: 0.08 µM
[10]
  FOB effects: no Compound A-related FOB effects
[11]
  inhibition of CYP1A2: does not inhibit
[12]
  induction of CYP1A2: not an inducer; also recorded: did not induce
[13]
  oral bioavailability, average observed in pre-clinical species: 62%
[14]; 2 mg/kg
  maximally-measured tumor level: 1.3 ± 0.3 µM
[14]; mouse, tumor, 10 mg/kg, read-out: maximally-measured tumor level
  concentration at 2 hr: 6.7 ± 1.7 µM
[15]
  metabolite identified: N-desmethyl derivative
[16]; 15 mg/kg/dose group
  weight loss: −6.6%
[16]; 25 mg/kg/dose group
  weight loss: −3.7%
[16]; 37.5 mg/kg/dose group
  weight loss: −3.1%
[17]
  IC50: 0.11 ± 0.04 µM
